Laboratory results taken from US9364482B2, “Substituted benzofuran compounds and methods of use thereof for the treatment of viral diseases” (priority 2013, dated 2016).
Like-named read-outs stand apart in the source and are kept apart here.

Tests used:
HCV replicon genotype 1b = assay: microbe, parasite or virus in culture; assay type: cell-based, hepatitis C virus (HCV)
HCV replicon genotype 1a = assay: microbe, parasite or virus in culture; assay type: cell-based, hepatitis C virus (HCV)
[1] = Hepatitis C virus, 96 h, read-out: 1b IC50 (nM)
[2] = Hepatitis C virus, 96 h, read-out: 1a IC50 (nM)

| SMILES | IC50 (HCV replicon genotype 1b; [1]) | IC50 (HCV replicon genotype 1a; [2]) | IC50 (HCV replicon genotype 1b; read-out: 1b IC50) | IC50 (HCV replicon genotype 1a; read-out: 1a IC50) |
| --- | --- | --- | --- | --- |
| CNC(=O)c1c(-c2ccc(F)cc2)oc2cc(N(C)S(C)(=O)=O)c(-c3ccc4nnn([C@@H](C)c5ccc(F)cc5)c(=O)c4c3)cc12 [Compound 45, 2-(4-fluorophenyl)-5-{3-[(1S)-1-(4-fluorophenyl)ethyl]-4-oxo-3,4-dihydro-1,2,3-benzotriazin-6-yl}-N-methyl-6-[methyl(methylsulfonyl)amino]-1-benzofuran-3-carboxamide] | 17.5 nM | 35 nM |  |  |
| CNC(=O)c1c(-c2ccc(F)cc2)oc2cc(N(C)S(C)(=O)=O)c(-c3ccc4nnn([C@@H](COC)c5ccc(F)cc5)c(=O)c4c3)cc12 [Compound 41, 2-(4-fluorophenyl)-5-{3-[(1R)-1-(4-fluorophenyl)-2-methoxyethyl]-4-oxo-3,4-dihydro-1,2,3-benzotriazin-6-yl}-N-methyl-6-[methyl(methylsulfonyl)amino]-1-benzofuran-3-carboxamide] | 16.2 nM | 18.1 nM |  |  |
| CNC(=O)c1c(-c2ccc(F)cc2)oc2cc(N(C)S(C)(=O)=O)c(-c3ccc4ncn(Cc5ccccc5)c(=O)c4c3)cc12 [Compound 49, 5-(3-benzyl-4-oxo-3,4-dihydroquinazolin-6-yl)-2-(4-fluorophenyl)-N-methyl-6-(N-methylmethylsulfonamido)benzofuran-3-carboxamide] | 10.2 nM | 6.25 nM |  |  |
| CNC(=O)c1c(-c2ccc(F)cc2)oc2cc(N(C)S(C)(=O)=O)c(-c3ccc4c(n3)C(=O)N([C@H](C)c3ccc(F)cc3)CO4)cc12 [Compound 30, (R)-2-(4-fluorophenyl)-5-(3-(1-(4-fluorophenyl)ethyl)-4-oxo-3,4-dihydro-2H-pyrido[2,3-e][1,3]oxazin-6-yl)-N-methyl-6-(N-methylmethylsulfonamido)benzofuran-3-carboxamide] |  |  | 2.23 nM | 0.981 nM |
| CNC(=O)c1c(-c2ccc(F)cc2)oc2cc(N(C)S(C)(=O)=O)c(-c3ccc4nc(C)n([C@H](COC)c5ccc(F)cc5)c(=O)c4n3)cc12 [Compound 67, (S)-2-(4-fluorophenyl)-5-(3-(1-(4-fluorophenyl)-2-methoxyethyl)-2-methyl-4-oxo-3,4-dihydropyrido[3,2-d]pyrimidin-6-yl)-N-methyl-6-(N-methylmethylsulfonamido)benzofuran-3-carboxamide] | 3.77 nM | 4.97 nM |  |  |
| CNC(=O)c1c(-c2ccc(F)cc2)oc2cc(N(C)S(C)(=O)=O)c(-c3cc4c(=O)n(Cc5ccc(F)cc5)nnc4cc3Cl)cc12 [Compound 73, 5-[7-chloro-3-(4-fluorobenzyl)-4-oxo-3,4-dihydro-1,2,3-benzotriazin-6-yl]-2-(4-fluorophenyl)-N-methyl-6-[methyl(methylsulfonyl)amino]-1-benzofuran-3-carboxamide] | 7.65 nM | 11.6 nM |  |  |
| CNC(=O)c1c(-c2ccc(F)cc2)oc2cc(N(C)S(C)(=O)=O)c(-c3ccc4nc(C)n(Cc5ccc(F)cc5)c(=O)c4n3)cc12 [Compound 68, 5-(3-(4-fluorobenzyl)-2-methyl-4-oxo-3,4-dihydropyrido[3,2-d]pyrimidin-6-yl)-2-(4-fluorophenyl)-N-methyl-6-(N-methylmethylsulfonamido)benzofuran-3-carboxamide] | 2.24 nM | 2 nM |  |  |
| CNC(=O)c1c(-c2ccc(F)cc2)oc2cc(N(C)S(C)(=O)=O)c(-c3ccc4c(n3)C(=O)N([C@@H](C)c3ccc(F)cc3)CO4)cc12 [Compound 31, (S)-2-(4-fluorophenyl)-5-(3-(1-(4-fluorophenyl)ethyl)-4-oxo-3,4-dihydro-2H-pyrido[2,3-e][1,3]oxazin-6-yl)-N-methyl-6-(N-methylmethylsulfonamido)benzofuran-3-carboxamide] |  |  | 12.5 nM | 41.8 nM |
| CNC(=O)c1c(-c2ccc(F)cc2)oc2cc(N(C)S(C)(=O)=O)c(-c3ccc4nnn(Cc5ccc(F)cc5)c(=O)c4c3)cc12 [Compound 44, 5-[3-(4-fluorobenzyl)-4-oxo-3,4-dihydro-1,2,3-benzotriazin-6-yl]-2-(4-fluorophenyl)-N-methyl-6-[methyl(methylsulfonyl)amino]-1-benzofuran-3-carboxamide] | 10.5 nM | 5.62 nM |  |  |
| CNC(=O)c1c(-c2ccc(F)cc2)oc2cc(N(C)S(C)(=O)=O)c(-c3ccc4nc(C)n([C@H](C)c5ccc(F)cc5)c(=O)c4c3)cc12 [Compound 57, (R)-2-(4-fluorophenyl)-5-(3-(1-(4-fluorophenyl)ethyl)-2-methyl-4-oxo-3,4-dihydroquinazolin-6-yl)-N-methyl-6-(N-methylmethylsulfonamido)benzofuran-3-carboxamide] | 9.82 nM | 9.65 nM |  |  |
| CNC(=O)c1c(-c2ccc(F)cc2)oc2cc(N(C)S(C)(=O)=O)c(-c3ccc4oc(=O)n(Cc5ccc(F)cc5)c(=O)c4n3)cc12 [Compound 14, 5-(3-(4-fluorobenzyl)-2,4-dioxo-3,4-dihydro-2H-pyrido[2,3-e][1,3]oxazin-6-yl)-2-(4-fluorophenyl)-N-methyl-6-(N-methylmethylsulfonamido)benzofuran-3-carboxamide] | 35.9 nM | 435 nM |  |  |
| CNC(=O)c1c(-c2ccc(F)cc2)oc2cc(N(C)S(C)(=O)=O)c(-c3ccc4nc(C)n([C@@H](COC)c5ccc(F)cc5)c(=O)c4n3)cc12 [Compound 65, (R)-2-(4-fluorophenyl)-5-(3-(1-(4-fluorophenyl)-2-methoxyethyl)-2-methyl-4-oxo-3,4-dihydropyrido[3,2-d]pyrimidin-6-yl)-N-methyl-6-(N-methylmethylsulfonamido)benzofuran-3-carboxamide] | 2.95 nM | 9.28 nM |  |  |
| CNC(=O)c1c(-c2ccc(F)cc2)oc2cc(N(C)S(C)(=O)=O)c(-c3cnc4ncn([C@H](C)c5ccc(F)cc5)c(=O)c4c3)cc12 [Compound 25] | 11.9 nM | 16.3 nM |  |  |
| CNC(=O)c1c(-c2ccc(F)cc2)oc2cc(N(C)S(C)(=O)=O)c(-c3ccc4c(n3)C(=O)N(Cc3ccc(OC)cc3)CO4)cc12 [Compound 5] | 1.59 nM | 3.06 nM |  |  |
| CNC(=O)c1c(-c2ccc(F)cc2)oc2cc(N(C)S(C)(=O)=O)c(-c3ccc4nnn(C(CO)c5ccccc5)c(=O)c4c3)cc12 (stereo not drawn) [Compound 43, 2-(4-fluorophenyl)-5-[3-(2-hydroxy-1-phenylethyl)-4-oxo-3,4-dihydro-1,2,3-benzotriazin-6-yl]-N-methyl-6-[methyl(methylsulfonyl)amino]-1-benzofuran-3-carboxamide] | 9.66 nM | 15.1 nM |  |  |
| CNC(=O)c1c(-c2ccc(F)cc2)oc2cc(N(C)S(C)(=O)=O)c(-c3ccc4c(n3)C(=O)N(CCc3ccccc3)CO4)cc12 [Compound 4] | 15.2 nM | 39.9 nM |  |  |
| CNC(=O)c1c(-c2ccc(F)cc2)oc2cc(N(C)S(C)(=O)=O)c(-c3ccc4ncn([C@H](C)c5ccc(F)cc5)c(=O)c4c3)cc12 [Compound 50, 2-(4-fluorophenyl)-5-{3-[(1R)-1-(4-fluorophenyl)ethyl]-4-oxo-3,4-dihydroquinazolin-6-yl}-N-methyl-6-[methyl(methylsulfonyl)amino]-1-benzofuran-3-carboxamide] | 4.23 nM | 3.18 nM |  |  |
| CNC(=O)c1c(-c2ccc(F)cc2)oc2cc(N(C)S(C)(=O)=O)c(-c3ccc4c(n3)C(=O)N(Cc3cccc(F)c3)CO4)cc12 [Compound 7] | 1.06 nM | 1.48 nM |  |  |
